Data: PMC9694494, “Resveratrol/Hydrazone Hybrids: Synthesis and Chemopreventive Activity against Colorectal Cancer Cells” (Pharmaceutics, 2022)
Like-named read-outs stand apart in the source and are kept apart here.

What was measured:
CHO-K1 cells = assay: SRB cell viability (cytotoxicity), CHO-K1; type: cell-based; conditions: Cricetulus griseus, CHO-K1 nonmalignant cells, read-out: IC50 ± SEM CHO
Description: (§1) Human colon cancer cell lines (SW480 and SW620), together with nonmalignant cells (CHO-K1 and HaCaT) were used to study the biological activity. Cells were purchased from the European Collection of Authenticated Cell Cultures (ECACC, UK). Dulbecco’s Modified Eagle Medium (DMEM) containing heat-inactivated (56 °C) horse serum (10%), non-essential amino acids (1%) and antibiotics (penicillin/streptomycin, 1%) (Gibco Invitrogen, Carlsbad, CA, USA) was used to maintain the cells, reducing the horse serum to 3%, and, adding insulin ([…]), transferrin ([…]) and selenium (5 ng/mL) (ITS-defined medium; Gibco, Invitrogen, Carlsbad, CA, USA) for all the experiments.
(§2) The colorimetric test with Sulforhodamine B (SRB) was used to evaluate cell viability. Cell density was adjusted to seed 20.000 cells/well in 96-well tissue culture plates. Cells were first incubated for 24 h and then treated with the synthesized hybrids, the lead compounds (PIH and resveratrol), and the reference drug (5-FU) (concentrations between 0.01 and 200 µM), using DMSO (below 1%) as vehicle control. The optimum conditions were 37 °C and 5% CO2. After the end of each treatment, cold trichloroacetic acid (MERCK, 50% v/v) was added and preserved for one hour at 4 °C, to fix the cells. Then, cell proteins were stained with 0.4% (w/v) SRB (Sigma-Aldrich, St. Louis, MO, USA), and subsequently washed with acetic acid (1%) to remove unbound SRB. After air-drying, protein-bound SRB was solubilized in 10 mM Tris-base before reading the absorbance at 492 nm in a microplate reader (Mindray MR-96A). All experiments were performed at least three times.

HaCaT cells = assay: SRB cell viability (cytotoxicity), HaCaT; type: cell-based; conditions: Homo sapiens, HaCaT nonmalignant cells, read-out: IC50 ± SEM HACAT
Description: as §1, §2

SW480 cells [1] = assay: SRB cell viability (cytotoxicity), SW480; type: cell-based, human; conditions: for Selectivity Index SI1: CHO-K1/SW480 IC50 ratio; for Selectivity Index SI2: HaCaT/SW480 IC50 ratio; for IC50: Homo sapiens, SW480, SRB, read-out: IC50 ± SEM SW480
Description: as §1, §2

SW620 cells = assay: SRB cell viability (cytotoxicity), SW620; type: cell-based, human; conditions: for Selectivity Index SI3: CHO-K1/SW620 IC50 ratio; for Selectivity Index SI4: HaCaT/SW620 IC50 ratio; for IC50: Homo sapiens, SW-620, SRB, read-out: IC50 ± SEM SW620
Description: as §1, §2

SW480 cells [2] = assay: Antiproliferative activity (SRB, 2-8 days), SW480; type: cell-based; conditions: Homo sapiens, read-out: Viability (%) ± SE; for viability at 3 µM: SW480, 3 µM; for viability at 6 µM: SW480, 6 µM; for viability at 12 µM: SW480, 12 µM; for viability at 24 µM: SW480, 24 µM; for viability at 48 µM: SW480, 48 µM
Description: The procedure for evaluating the antiproliferative activity was carried out using the same colorimetric test (SRB) described for cell viability, with minor modifications. Briefly, 2500 cells/well were seeded in 96-well tissue culture plates and incubated as in the previously described conditions for 0, 2, 4, 6, and 8 days. […] The culture medium was changed every 48 h. After each incubation time, cells were fixed, stained, and read as previously described for this technique.

SW480 cells [3] = assay: Mitochondrial membrane potential (DiOC6/PI flow cytometry), SW480; type: cell-based, human; conditions: SW480, treated at IC50 value, DiOC6/PI
Description: To evaluate changes in mitochondrial membrane permeability, the fluorescent dyes DiOC6 (3,3′-dihexyloxacarbocyanine iodide, Thermo Fisher Scientific, Waltham, MA, USA) and propidium iodide (PI) were used. Cell density was adjusted to seed 2.5 × 10^5 cells/well in 6-well tissue culture plates. […] Subsequently, cells were scraped with the same culture mean and stained with both fluorescent dyes, incubating at room temperature for 30 min in darkness. For each sample, 10,000 events were analyzed through flow cytometry with excitation at 488 nm and detection of the emission with the green (530/15 nm) and the red (610/20 nm) filters. The results informed about the cells with depolarized mitochondrial membranes.

## COc1ccc(C(=O)N/N=C/c2c(O)cc(O)cc2/C=C/c2ccc(O)cc2)c(OC)c1 [6e, N′-((E)-2,4-dihydroxy-6-((E)-4-hydroxystyryl)benzylidene)-2,4-dimethoxybenzohydrazide]
CHO-K1 cells; 24 H
  IC50: 20.6 ± 3.06 µM
CHO-K1 cells; 48 H
  IC50: 18.8 ± 1.9 µM
HaCaT cells; 24 H
  IC50: 34.4 ± 3.96 µM
HaCaT cells; 48 H
  IC50: 19.1 ± 0.8 µM
SW480 cells [1]; 24 H
  Selectivity Index SI1: 0.85
  Selectivity Index SI2: 1.42
  IC50: 24.2 ± 3.29 µM
SW480 cells [1]; 48 H
  Selectivity Index SI1: 2.89
  Selectivity Index SI2: 2.94
  IC50: 6.5 ± 1.9 µM
SW480 cells [1]; SW480 versus the nonmalignant cell lines, 48 h after treatment
  selectivity (SI): > 1
SW620 cells; 24 H
  Selectivity Index SI3: 0.28
  Selectivity Index SI4: 0.46
  IC50: 74.8 ± 12.9 µM
SW620 cells; 48 H
  Selectivity Index SI3: 0.67
  Selectivity Index SI4: 0.69
  IC50: 27.8 ± 3.9 µM
SW480 cells [2]; 48 h, 2 days after plating
  viability at 3 µM: 95 ± 3.11%
  viability at 6 µM: 58.9 ± 0.89%
  viability at 12 µM: 38.4 ± 2.67%
  viability at 24 µM: 23.9 ± 0.82%
  viability at 48 µM: 9.44 ± 1.17%
SW480 cells [2]; 96 h, 4 days after plating
  viability at 3 µM: 68.5 ± 1.31%
  viability at 6 µM: 10.5 ± 0.87%
  viability at 12 µM: 2.78 ± 0.42%
  viability at 24 µM: 0.81 ± 0.38%
  viability at 48 µM: 0.3 ± 0.33%
SW480 cells [2]; 144 h, 6 days after plating
  viability at 3 µM: 49 ± 2.08%
  viability at 6 µM: 5.03 ± 0.19%
  viability at 12 µM: 0.76 ± 0.36%
  viability at 24 µM: 0%
  viability at 48 µM: 0%
SW480 cells [2]; 192 h, 8 days after plating
  viability at 3 µM: 33.86 ± 0.3%
  viability at 6 µM: 2.52 ± 0.1%
  viability at 12 µM: 0.48 ± 0.11%
  viability at 24 µM: 0%
  viability at 48 µM: 0%
SW480 cells [3]
  Q1: PI-positive cells with membrane damage: 0.288%
  Q2: PI-positive cells with membrane damage: 0.831%
  Q3: DiOC6 high, live cells with high membrane polarization: 98.6%
  Q4: DiOC6 low, cells in latency that lose membrane polarization: 0.305%
